Test results reported in US20100317621A1, “BETA-LACTAMASE INHIBITORS” (priority 2007, published 2010).
Converted amounts (≈) assume the structure as drawn.

Key:
[1] = tested on: E. coli expressing the Class A ESBL CTX-M-15; test: microbe, parasite or virus in culture; type: cell-based; conditions: Escherichia coli, read-out: MIC alone, E. coli CTX-M-15
CTXM-15 β-lactamase = target: T1, CTXM-15 β-lactamase (Escherichia coli, UniProt Q9EXV5); test: biochemical; type: biochemical; conditions: crude enzyme extract, 10 min preincubation at 37° C., nitrocefin 100 μM, PBS pH 7.0; read-out: CTXM-15 IC50 Range
T1 construct: The β-lactamases were extracted by four cycles of freezing and thawing followed by centrifugation; endogenous in cells; host or cells: Escherichia coli cells containing CTXM-15 (crude freeze-thaw extract)
T1 sequence (Q9EXV5 29-291): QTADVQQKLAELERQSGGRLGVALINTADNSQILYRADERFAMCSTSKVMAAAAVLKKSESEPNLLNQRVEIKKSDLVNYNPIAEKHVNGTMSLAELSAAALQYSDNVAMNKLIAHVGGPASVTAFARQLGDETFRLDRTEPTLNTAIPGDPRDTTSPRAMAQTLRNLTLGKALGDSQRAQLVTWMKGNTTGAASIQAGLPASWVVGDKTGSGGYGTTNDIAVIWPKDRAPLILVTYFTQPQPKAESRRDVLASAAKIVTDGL
Procedure: (§1) Isolation of β-lactamases. Crude β-lactamase extracts were prepared from 20 ml overnight cultures with shaking. Escherichia coli cells containing SHV-5 or CTXM-15 and Enterobacter cloacae cells containing P99 were further diluted 10-fold and grown to mid-log phase (OD at 600 nm, 0.5-0.8) in Mueller-Hinton II (MH-II) broth at 37° C. The cells were pelleted at 5000 g, washed and resuspended in 2 mL PBS pH 7.0. The β-lactamases were extracted by four cycles of freezing and thawing followed by centrifugation. β-lactamase activity in the extracts was measured with the chromogenic cephalosporin nitrocefin. The amount of protein in each β-lactamase preparation was determined by the bicinchoninic acid (BCA) assay.
(§2) β-lactamase Inhibition. To determine the level of inhibition of β-lactamase enzymes, compounds were diluted in PBS at pH 7.0 to yield concentrations between 100 and 0.005 μM in microtiter plates. An equal volume of diluted enzyme stock was added, and the plates were incubated at 37° C. for 10 min. Nitrocefin solution was then dispensed as substrate into each well at a final concentration of 100 μM, and the plates were immediately read with the kinetic program at 486 nm for 10 min on the SPECTRAMAX® Plus^384 (high-throughput microplate spectrophotometer; Molecular Devices Corp., Sunnyvale, Calif.). Maximum rates of metabolism were then compared to those in control wells (without inhibitors), and percentages of enzyme inhibition were calculated for each concentration of inhibitor. The concentration of inhibitor needed to reduce the initial rate of hydrolysis of substrate by 50% (IC50) was calculated as the residual activity of β-lactamase at 486 nm using the SoftMax Pro 5.0 software (Molecular Devices Corp.).

P99 AmpC β-lactamase = target: T2, P99 AmpC β-lactamase (Enterobacter cloacae, UniProt P05364); test: biochemical; type: biochemical; conditions: crude enzyme extract, 10 min preincubation at 37° C., nitrocefin 100 μM, PBS pH 7.0; read-out: P99 AmpC IC50 Range
T2 construct: The β-lactamases were extracted by four cycles of freezing and thawing followed by centrifugation; endogenous in cells; host or cells: Enterobacter cloacae cells containing P99 (crude freeze-thaw extract)
T2 sequence (P05364 21-381): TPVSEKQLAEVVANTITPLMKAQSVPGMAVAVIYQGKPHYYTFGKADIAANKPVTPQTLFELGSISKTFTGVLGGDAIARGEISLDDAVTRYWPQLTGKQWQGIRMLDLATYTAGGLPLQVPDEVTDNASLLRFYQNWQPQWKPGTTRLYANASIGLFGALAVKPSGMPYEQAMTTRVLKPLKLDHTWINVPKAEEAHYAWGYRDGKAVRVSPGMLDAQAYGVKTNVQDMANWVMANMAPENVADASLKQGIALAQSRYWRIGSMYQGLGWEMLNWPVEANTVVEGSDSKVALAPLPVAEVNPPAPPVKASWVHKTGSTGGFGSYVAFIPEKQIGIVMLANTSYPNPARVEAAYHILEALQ
Procedure: as §1, §2

SHV-5 β-lactamase = target: T3, SHV-5 β-lactamase (Klebsiella pneumoniae, UniProt P0A3M1); test: biochemical; type: biochemical, Escherichia coli; conditions: crude enzyme extract, 10 min preincubation at 37° C., nitrocefin 100 μM, PBS pH 7.0; read-out: SHV-5 IC50 Range
T3 construct: The β-lactamases were extracted by four cycles of freezing and thawing followed by centrifugation; endogenous in cells; host or cells: Escherichia coli cells containing SHV-5 (crude freeze-thaw extract)
T3 sequence (P0A3M1 22-286): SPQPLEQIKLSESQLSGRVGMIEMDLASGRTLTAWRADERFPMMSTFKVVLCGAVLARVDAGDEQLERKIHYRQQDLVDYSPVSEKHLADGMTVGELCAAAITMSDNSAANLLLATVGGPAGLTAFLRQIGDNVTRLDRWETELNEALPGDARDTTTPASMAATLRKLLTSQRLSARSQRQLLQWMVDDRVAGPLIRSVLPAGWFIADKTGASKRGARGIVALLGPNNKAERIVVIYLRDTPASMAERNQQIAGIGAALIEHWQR
Procedure: as §1, §2

[2] = tested on: E. coli expressing the Class A ESBL CTX-M-15; type: cell-based; conditions: in the presence of fixed 8 μg/mL cefotaxime; CAMHB, 16-20 hours at 37° C.
Description: (§3) To determine the ability of test compounds to potentiate the inhibition of the growth of bacterial strains producing beta-lactamase enzymes, classic cell based screening assays were employed. Four bacteria strains producing beta-lactamase enzymes were used: E. coli expressing the Class A Extended Spectrum Beta-Lactamase (ESBL) CTX-M-15, E. coli expressing the Class A ESBL SHV-5, E. cloacae expressing the Class C P99+, and K. pneumoniae expressing the Class A carbapenemase KPC-2. In order to evaluate the ability of test compounds to inhibit beta-lactamase activity, Applicants used a modification of the broth microdilution assay. The assay was conducted in Cation Adjusted Mueller Hinton Broth (CAMHB, BD #212322, BD Diagnostic Systems, Sparks, Md.). Bacteria strains were grown for 3-5 hours in CAMBH broth. All four strains were grown in presence of 50 μg/mL ampicillin to ensure resistance is maintained. In the meantime, test compounds were diluted in DMSO to a 0.1 mg/mL stock. The compounds were added to a microtiter plate and were diluted in 2-fold serial dilutions in CAMHB in a final concentration range of 32 μg/mL to 0.25 μg/mL. An overlay of CAMHB containing a cephalosporin was added to the compounds at a final static concentration of 8 μg/mL. […] Each of these compound plates are made in quadruplicate, one for each bacteria strain. In addition to the titration of test compounds the MICs of a panel of cephalosporins is also tested to ensure the strains are behaving consistently from test to test. Once the test compound and cephalosporin are added the plates can be inoculated. Inocula are conducted according to CLSI broth microdilution method. After inoculation the plates are incubated for 16-20 hours at 37° C. then the Minimal Inhibitory Concentration (MIC) of the test compound is determined visually.
(§4) Using the methodology described above, examples of the current invention were evaluated for their ability to inhibit the growth of β-lactamase producing bacteria in the presence of a β-lactam antibiotic.

[3] = tested on: E. cloacae expressing the Class C P99+; type: cell-based; conditions: in the presence of fixed 8 μg/mL ceftazidime; CAMHB, 16-20 hours at 37° C.
Description: as §3, §4

[4] = tested on: E. coli expressing the Class A ESBL SHV-5; type: cell-based; conditions: in the presence of fixed 8 μg/mL ceftazidime; CAMHB, 16-20 hours at 37° C.
Description: as §3, §4

[5] = tested on: K. pneumoniae expressing the Class A carbapenemase KPC-2; type: cell-based; conditions: in the presence of fixed 8 μg/mL ceftazidime; CAMHB, 16-20 hours at 37° C.
Description: as §3, §4

Row | Structure (SMILES) | MIC [1] | IC50 (CTXM-15 β-lactamase) | IC50 (P99 AmpC β-lactamase) | IC50 (SHV-5 β-lactamase) | MIC of example compound, E. coli CTXM-15 + 8 μg/mL TAX [2] | MIC of example compound, E. cloacae P99+ + 8 μg/mL CAZ [3] | MIC of example compound, E. coli SHV-5 + 8 μg/mL CAZ [4] | MIC of example compound, K. pneumoniae KPC-2 + 8 μg/mL CAZ [5]
1 | CO/N=C(\C(=O)N[C@@H]1C(=O)N2C(C(=O)O)=C(COC(C)=O)CS[C@H]12)c1csc(N)n1 [cefotaxime] | 1020 µg/mL (≈ 2250 µM) |  |  |  |  |  |  | 
2 | O=C(Cc1cccs1)N[C@@H](Cc1ccc(F)c(C(=O)O)c1)B(O)O [Example 21, (1R)-1-(2-thiophene-2-yl-acetylamino)-2-(3-carboxy-4-fluorophenyl)ethyl-1-boronic acid] |  | < 100 nM | 100 to 1000 nM | < 100 nM | C (C represents an MIC of <2 μg/mL) | B (B represents an MIC between 2 and 32 μg/mL) | C (C represents an MIC of <2 μg/mL) | B (B represents an MIC between 2 and 32 μg/mL)
3 | NCCOc1cccc(CC(=O)N[C@@H](Cc2cccc(C(=O)O)c2)B(O)O)c1 [Example 30, (1R)-1-{2-[3-(2-Amino-ethoxy)-phenyl]-acetylamino}-2-(3-carboxyphenyl)ethyl-1-boronic acid] |  | < 100 nM | 100 to 1000 nM | 100 to 1000 nM | B (B represents an MIC between 2 and 32 μg/mL) | B (B represents an MIC between 2 and 32 μg/mL) | B (B represents an MIC between 2 and 32 μg/mL) | B (B represents an MIC between 2 and 32 μg/mL)
4 | O=C(Cc1cccs1)N[C@@H](Cc1cccc(C(=O)O)c1)B(O)O [Example 1, (1R)-1-(2-thiophene-2-yl-acetylamino)-2-(3-carboxyphenyl)ethyl-1-boronic acid] |  | < 100 nM | 100 to 1000 nM | < 100 nM | B (B represents an MIC between 2 and 32 μg/mL) | B (B represents an MIC between 2 and 32 μg/mL) | B (B represents an MIC between 2 and 32 μg/mL) | C (C represents an MIC of <2 μg/mL)
5 | COc1cccc(CC(=O)N[C@@H](Cc2cccc(C(=O)O)c2)B(O)O)c1 [Example 2, (1R)-1-(3-Methoxyphenylacetylamino)-2-(3-carboxyphenyl)ethyl-1-boronic acid] |  | < 100 nM | 100 to 1000 nM | < 100 nM | B (B represents an MIC between 2 and 32 μg/mL) | A (A represents an MIC>32 μg/mL) | B (B represents an MIC between 2 and 32 μg/mL) | B (B represents an MIC between 2 and 32 μg/mL)
